# Measured values as given in ChEMBL document CHEMBL1201862, “PubChem BioAssay data set” (2004).
#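 Assay format: 96-well plates, 48-hour exposure. The concentration for 50% growth inhibition is given as GI50.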 Activity calls are given as the source filed them. Cut-off read from the data, not from the text of the source: active = GI50 up to about 1.1 µM and inactive = higher.
# How the values were obtained:
# Test in all cases: DTP human tumour cell line panel, 48 h
# [1] = system: OVCAR-3
# [2] = system: K562
# [3] = system: RPMI-8226
# [4] = system: A498
# [5] = system: MDA-MB-231
# [6] = system: SF-268
# [7] = system: 786-0
# [8] = system: NCI-H522
# [9] = system: NCI-H226
# [10] = system: NCI-H460
# [11] = system: CCRF-CEM
# [12] = system: KM12
# [13] = system: EKVX
# [14] = system: MDA-MB-435
# [15] = system: IGROV-1
# [16] = system: SN12C
# [17] = system: PC-3
# [18] = system: OVCAR-5
# [19] = system: T47D
Structure (SMILES),GI50 [1],GI50 [2],GI50 [3],GI50 [4],GI50 [5],GI50 [6],GI50 [7],GI50 [8],GI50 [9],GI50 [10],GI50 [11],GI50 [12],GI50 [13],GI50 [14],GI50 [15],GI50 [16],GI50 [17],GI50 [18],GI50 [19]
CN(CC(=O)N1CC(CCl)c2ccc([N+](=O)[O-])cc21)CC(=O)N1CC(CCl)c2ccc([N+](=O)[O-])cc21 (stereo unspecified),74.1 µM (inactive),> 100 µM (inactive),95.9 µM (inactive),> 100 µM (inactive),> 100 µM (inactive),> 100 µM (inactive),> 100 µM (inactive),7.73 µM (inactive),> 100 µM (inactive),> 100 µM (inactive),> 100 µM (inactive),> 100 µM (inactive),> 100 µM (inactive),83.9 µM (inactive),34.9 µM (inactive),> 100 µM (inactive),> 100 µM (inactive),> 100 µM (inactive),–
COc1cc(/C=C2/SC(c3ccccc3)N(c3cccc(Cl)c3)C2=O)cc(OC)c1OC (stereo unspecified),40.1 µM (inactive),13.5 µM (inactive),16.2 µM (inactive),81.7 µM (inactive),67 µM (inactive),21 µM (inactive),16.8 µM (inactive),11.5 µM (inactive),42.7 µM (inactive),32.1 µM (inactive),11.3 µM (inactive),32.4 µM (inactive),41.3 µM (inactive),17.6 µM (inactive),–,17.5 µM (inactive),–,29.9 µM (inactive),25.5 µM (inactive)
C1CSCC2(COC2)CS1,–,> 100 µM (inactive),–,> 100 µM (inactive),–,> 100 µM (inactive),–,> 100 µM (inactive),> 100 µM (inactive),> 100 µM (inactive),> 100 µM (inactive),> 100 µM (inactive),–,> 100 µM (inactive),–,> 100 µM (inactive),> 100 µM (inactive),–,–
CCOC(=O)c1c(-c2ccccc2)c(-c2ccccc2)cn1C,> 10 µM (inactive),> 10 µM (inactive),–,–,–,> 10 µM (inactive),> 10 µM (inactive),> 10 µM (inactive),> 10 µM (inactive),> 10 µM (inactive),> 10 µM (inactive),> 10 µM (inactive),> 10 µM (inactive),> 10 µM (inactive),> 10 µM (inactive),> 10 µM (inactive),–,> 10 µM (inactive),–
CC(=O)NC1C(OCc2ccccc2)OC(CO)C(O)C1OCC(=O)NC(C)C(=O)NC(CCC(=O)NCCCCCNc1c2ccccc2nc2cccc([N+](=O)[O-])c12)C(N)=O (stereo unspecified),< 0.01 µM (active),< 0.0001 µM (active),< 0.0001 µM (active),< 0.0001 µM (active),< 0.0001 µM (active),< 0.0001 µM (active),< 0.0001 µM (active),< 0.0001 µM (active),0.000202 µM (active),< 0.0001 µM (active),0.000861 µM (active),< 0.0001 µM (active),0.00197 µM (active),< 0.0001 µM (active),0.00102 µM (active),< 0.0001 µM (active),< 0.0001 µM (active),< 0.0001 µM (active),–
CCOC(=O)NC(C(F)(F)F)(C(F)(F)F)P(=O)(OC(C)C)OC(C)C,> 100 µM (inactive),> 100 µM (inactive),> 100 µM (inactive),–,> 100 µM (inactive),> 100 µM (inactive),> 100 µM (inactive),–,58.7 µM (inactive),> 100 µM (inactive),> 100 µM (inactive),> 100 µM (inactive),> 100 µM (inactive),> 100 µM (inactive),> 100 µM (inactive),> 100 µM (inactive),> 100 µM (inactive),> 100 µM (inactive),–
O=C(N/N=C(/c1ccccc1)C(F)(F)F)c1ccncc1,> 100 µM (inactive),35.1 µM (inactive),> 100 µM (inactive),> 100 µM (inactive),–,–,–,> 100 µM (inactive),> 100 µM (inactive),> 100 µM (inactive),76 µM (inactive),> 100 µM (inactive),–,> 100 µM (inactive),> 100 µM (inactive),> 100 µM (inactive),> 100 µM (inactive),> 100 µM (inactive),> 100 µM (inactive)
Oc1cccc(-c2ccc3c4c2O[C@H]2c5[nH]c6ccccc6c5C[C@@]5(O)[C@@H](C3)N(CC3CC3)CC[C@]425)c1,2 µM (inactive),–,–,–,2.17 µM (inactive),1.68 µM (inactive),1.62 µM (inactive),–,3.75 µM (inactive),–,1.9 µM (inactive),1.98 µM (inactive),13.5 µM (inactive),1.72 µM (inactive),1.74 µM (inactive),1.67 µM (inactive),1.98 µM (inactive),1.96 µM (inactive),2.07 µM (inactive)
Nc1c(C(=O)c2ccccc2)nnc2ccccc12,–,30.8 µM (inactive),33.7 µM (inactive),–,18.2 µM (inactive),35.6 µM (inactive),30.5 µM (inactive),–,30.4 µM (inactive),24 µM (inactive),–,20.4 µM (inactive),22.6 µM (inactive),21.9 µM (inactive),26.6 µM (inactive),–,24.8 µM (inactive),36.5 µM (inactive),–
